Measured values taken from patent US11358977B2, “Deuterated pyridone amides and prodrugs thereof as modulators of sodium channels” (VERTEX PHARMACEUTICALS INCORPORATED, priority 2017, dated 2022).

What was measured:
[1] = In vitro microsomal metabolic stability assay, rat; type: in vitro ADME; settings: rat liver microsomes 0.25 mg/mL, 1.0 μM compound, NADPH
Procedure: (§1) Materials. Rat, Dog, Monkey and Human liver microsomes (20 mg/mL) were obtained from Xenotech, LLC (Lenexa, Kans.). P-nicotinamide adenine dinucleotide phosphate, reduced form (NADPH), magnesium chloride (MgCl2), and dimethyl sulfoxide (DMSO) were purchased from Sigma-Aldrich.
(§2) Methods. […] The 10 mM stock solutions were diluted to 100 μM in DMSO. In each cluster polypropylene tube, 190.7 μL of 100 mM phosphate buffer, pH 7.4 was added, then 2.5 μL of liver mocrosomes (20 mg/mL, rat, dog, monkey or human) was added, then a 2 μL aliquot of the 100 μM test compound was added, and the mixture was pre-warmed for 10 minutes. Reactions were initiated by addition of 4.8 μL of pre-warmed NADPH solution (100 mM in 100 mM phosphate buffer). The final reaction volume was 200 μL and contained 0.25 mg/mL rat, dog, monkey or human liver microsomes, 1.0 μM test compound, and 2.4 mM NADPH in 0.1 M potassium phosphate buffer, pH 7.4. The reaction mixtures were incubated at 37° C., and the reactions were quenched at 0, 15, 30 and 60 minutes by adding 200 μL of ice-cold quench solution (ACN:MeOH:0.1% formic acid in water 2:2:1) containing internal standard, n=3 per time point. The tubes were centrifuged and supernatants were analyzed for amounts of the test compound remaining by LC-MS/MS. The HPLC system included a Phenomenex Luna C8 column, 3 micron, 2 mm diameter×30 mm long eluted with a gradient mobile phase consisting of 0.1% formic acid in water or in acetonitrile. The analytes were detected by MS/MS with Electrospray Ionization (ESI) in the mode of multiple reaction monitoring (MRM). The injection volume was 10 μL.

[2] = In vitro microsomal metabolic stability assay, dog; type: in vitro ADME; settings: dog liver microsomes 0.25 mg/mL, 1.0 μM compound, NADPH
Procedure: as §1, §2

[3] = In vitro microsomal metabolic stability assay, monkey; type: in vitro ADME; settings: monkey liver microsomes 0.25 mg/mL, 1.0 μM compound, NADPH
Procedure: as §1, §2

[4] = In vitro microsomal metabolic stability assay, human; type: in vitro ADME; settings: human liver microsomes 0.25 mg/mL, 1.0 μM compound, NADPH
Procedure: as §1, §2

[5] = In vivo pharmacokinetic study, rat IV; design: species or system Male Sprague Dawley rats; settings: male, Sprague Dawley, plasma, rat IV bolus, cassette, nominal 0.5 mg/kg
Procedure: General Procedures. Concentrations of the test compounds in plasma were determined using a high performance liquid chromatography/tandem mass spectrometry (HPLC/MS/MS) method. The test compounds along with the internal standard (IS) were extracted from plasma (20 μL) by direct protein precipitation with acetonitrile (1:25 ratio of plasma/acetonitrile). After centrifugation, the supernatant extract (10 μL) was injected onto the LC/MS/MS system. The HPLC system included a Phenomenex Luna C8 column, 3 micron, 2 mm diameter×30 mm long eluted with a gradient mobile phase consisting of 0.1% formic acid in water or in acetonitrile. The analytes were detected by MS/MS with Electrospray Ionization (ESI) in the mode of multiple reaction monitoring (MRM). The lower limit of quantitation (LLOQ) was 1.00 ng/mL. The linear range of the assay was from 1 to 3000 ng/mL. The assay accuracy was within 20% of the nominal values.
Plasma concentration-time profiles of the test compounds were analyzed by noncompartmental pharmacokinetic methods using PK module in Watson, Version 7.4.2 (Thermo Scientific). Pharmacokinetic parameters including AUCa11, AUC0-∞, C0, Cl, Vss and t1/2 were determined.
Descriptive statistical data of plasma concentrations and pharmacokinetic parameter estimates were calculated, including the mean, standard deviation (SD), and coefficient of variation (% CV) using Microsoft Excel 2010.
Rat IV Study. Compounds 7 and 10 were administered simultaneously in a single intravenous bolus to Male Sprague Dawley rats (n=3) via jugular cannula. The nominal dose of each compound was 0.5 mg/kg. The cassette dosing solution was formulated in D5W with additives Animals had free access to food and water before and after dosing. Blood samples (approximately 0.25 mL each) were collected via a carotid artery catheter prior to dosing and at 0 (predose), 5 min, 10 min, 0.25, 0.5, 1, 2, 4, 8, 12, 24 hours post dose. Each blood sample was collected into a tube that was kept on wet ice and contained potassium EDTA as the anticoagulant. Plasma was separated and stored at approximately −70° C. until analysis.
Plasma samples and dosing solutions were analyzed using a liquid chromatography/tandem mass spectrometry (LC/MS/MS) method to determine the concentrations of Compounds 7 and 10 with a lower limit of quantitation (LLOQ) of 1.00 ng/mL. The average plasma concentrations of Compounds 7 and 10 are plotted in FIG. 5 and are also presented in tabular form in Table 5.
Plasma concentration vs. time data were subjected to noncompartmental pharmacokinetic (PK) analysis. To determined the measured dose of each compound, the dose formulation (50 μL) was aliquoted into a cluster tube at the time of dosing. Then 450 μL of DMSO was added to the tube to dilute it 10×. Then the diluted dosing solution was spiked into rat blank plasma with 100× dilution. The resulting plasma sample was analyzed along with the plasma samples collected from rats that were dosed with the compounds, using the same LC/MS/MS method.

[6] = In vitro hepatocyte assay: prodrug conversion to parent compound; type: in vitro ADME, human; settings: for half-life at 0.25 µM: cryopreserved human hepatocytes in suspension, cryopreserved human hepatocytes 0.625 million cells/mL, 37° C., Compounds 20 and 13 co-incubated, read-out: t1/2 in human hepatocytes; for conversion of prodrug to parent compound / % remaining: human hepatocytes; for conversion of prodrug to parent compound: LC-MS/MS, Compound 20 to Compound 10, Compound 13 to Compound 7
Procedure: Materials. Cryopreserved human hepatocytes and Cryopreserved Hepatocytes Recovery Medium (CHRM™) were purchased from Life Technologies (Carlsbad, Calif.). Gibco™ Leibovitz's L-15 Medium was purchased from Fisher Scientific (Waltham, Mass.).
Methods. 10 mM stock solutions containing Compound 20 and Compound 13 were prepared in DMSO. Equal volumes of the two 10 mM stock solutions were mixed to form a combination stock solution containing Compound 20 and Compound 13 in concentrations of 5 mM each. The 5 mM combination stock solution was diluted to a concentration of 50 μM of each compound in DMSO (“50 μM combination stock”). Cryopreserved human hepatocytes were thawed in CHRM™ medium and prepared as a suspension in incubation medium (L-15 Medium with supplements containing glucose, HEPES buffer and NaHCO3), with the final cell concentration of 0.625 million cells/mL. In a 48 well plate, 1 μL of the 50 μM combination stock and then 199 μL of hepatocyte suspension (0.625 million cells/mL) were added to each well. The plate was covered and incubated at 37° C. in an incubator with gentle shaking (50 rpm). The reactions were quenched at 0, 0.25, 0.5, 1 and 2 hours by adding 200 μL of ice-cold quench solution (ACN:MeOH:0.1% aqueous formic acid, 2:2:1) containing internal standard (n=3 per time point). […] LC-MS/MS analysis was conducted using a Phenomenex Luna C8 column (3 micron, 2 mm diameter×30 mm long, at room temperature) eluted with a gradient consisting of mobile phases of 0.1% formic acid in water and 0.1% formic acid in acetonitrile at a total flow rate of 0.6 mL/min and a total run time of 4.5 minutes. The analytes were detected by MS/MS with Electrospray Ionization (ESI) in the mode of multiple reaction monitoring (MRM). The injection volume was 10 μL.

human NaV 1.8 = target: T1, human NaV 1.8 (Homo sapiens, UniProt Q9Y5Y9); experiment: E-VIPR assay for NaV inhibition; type: cell-based; settings: HEK cells expressing human NaV 1.8, E-VIPR
T1 construct: expressed in transfected cells; host or cells: HEK cells, grown under blasticidin selection; KIR2.1 BacMam virus added before seeding
T1 sequence (Q9Y5Y9 whole entry): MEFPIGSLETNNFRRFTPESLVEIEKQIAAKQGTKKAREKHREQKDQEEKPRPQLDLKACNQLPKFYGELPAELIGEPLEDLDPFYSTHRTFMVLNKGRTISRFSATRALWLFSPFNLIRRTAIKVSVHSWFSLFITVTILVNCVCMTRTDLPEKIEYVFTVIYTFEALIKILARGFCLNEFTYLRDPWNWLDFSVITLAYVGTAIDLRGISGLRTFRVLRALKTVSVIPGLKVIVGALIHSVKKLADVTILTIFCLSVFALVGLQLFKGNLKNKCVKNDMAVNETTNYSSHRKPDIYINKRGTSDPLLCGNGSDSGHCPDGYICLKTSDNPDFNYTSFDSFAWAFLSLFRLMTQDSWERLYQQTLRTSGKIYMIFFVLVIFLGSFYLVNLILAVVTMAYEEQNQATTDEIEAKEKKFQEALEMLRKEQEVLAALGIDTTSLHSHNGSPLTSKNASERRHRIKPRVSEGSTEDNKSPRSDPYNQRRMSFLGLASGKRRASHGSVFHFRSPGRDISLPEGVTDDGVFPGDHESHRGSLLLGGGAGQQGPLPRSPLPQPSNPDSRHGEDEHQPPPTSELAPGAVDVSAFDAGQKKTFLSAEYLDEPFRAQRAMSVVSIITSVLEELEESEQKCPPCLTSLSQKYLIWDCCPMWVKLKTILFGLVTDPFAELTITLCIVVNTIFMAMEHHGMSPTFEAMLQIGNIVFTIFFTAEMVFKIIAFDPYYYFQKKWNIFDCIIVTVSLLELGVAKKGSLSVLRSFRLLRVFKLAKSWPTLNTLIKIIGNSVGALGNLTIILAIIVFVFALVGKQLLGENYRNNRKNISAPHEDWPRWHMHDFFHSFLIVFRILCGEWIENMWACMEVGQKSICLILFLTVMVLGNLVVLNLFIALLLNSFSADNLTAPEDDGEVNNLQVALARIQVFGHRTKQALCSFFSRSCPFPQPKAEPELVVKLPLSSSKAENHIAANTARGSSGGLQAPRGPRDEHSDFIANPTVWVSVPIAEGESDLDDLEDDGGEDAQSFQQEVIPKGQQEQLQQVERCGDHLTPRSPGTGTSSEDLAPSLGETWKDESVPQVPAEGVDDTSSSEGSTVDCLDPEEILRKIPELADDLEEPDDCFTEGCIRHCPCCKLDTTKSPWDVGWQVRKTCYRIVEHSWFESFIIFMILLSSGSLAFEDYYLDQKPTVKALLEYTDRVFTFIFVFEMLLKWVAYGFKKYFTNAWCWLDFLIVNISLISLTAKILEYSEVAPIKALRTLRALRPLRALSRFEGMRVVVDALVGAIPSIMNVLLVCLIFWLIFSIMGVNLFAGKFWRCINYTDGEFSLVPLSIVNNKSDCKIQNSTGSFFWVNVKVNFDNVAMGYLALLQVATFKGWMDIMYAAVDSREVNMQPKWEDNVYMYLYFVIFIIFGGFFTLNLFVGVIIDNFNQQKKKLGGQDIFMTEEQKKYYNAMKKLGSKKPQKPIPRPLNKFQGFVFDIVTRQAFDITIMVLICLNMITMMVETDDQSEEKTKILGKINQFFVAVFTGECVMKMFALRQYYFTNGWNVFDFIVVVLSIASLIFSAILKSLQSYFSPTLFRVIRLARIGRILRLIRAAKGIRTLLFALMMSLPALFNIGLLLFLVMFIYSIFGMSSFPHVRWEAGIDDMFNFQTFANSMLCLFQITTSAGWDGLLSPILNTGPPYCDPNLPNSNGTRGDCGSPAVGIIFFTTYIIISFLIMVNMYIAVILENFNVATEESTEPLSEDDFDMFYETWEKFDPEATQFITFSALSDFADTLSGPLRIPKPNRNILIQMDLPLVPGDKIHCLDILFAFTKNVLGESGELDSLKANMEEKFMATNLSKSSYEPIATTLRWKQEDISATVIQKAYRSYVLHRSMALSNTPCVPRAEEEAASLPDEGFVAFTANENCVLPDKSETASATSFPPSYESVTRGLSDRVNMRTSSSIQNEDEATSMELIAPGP
Description: Sodium ion channels are voltage-dependent proteins that can be activated by inducing membrane voltage changes by applying electric fields. […] The instrument comprises a microtiter plate handler, an optical system for exciting the coumarin dye while simultaneously recording the coumarin and oxonol emissions, a waveform generator, a current- or voltage-controlled amplifier, and parallel electrode pairs that are inserted into assay plate wells. Under integrated computer control, this instrument passes user-programmed electrical stimulus protocols to cells within the wells of the microtiter plate.
The solution was made by adding 10% Pluronic F127 stock equal to combined volumes of CC2-DMPE and DiSBAC6(3).
Then 25 μL per well from compound plate was transferred to each cell plate.
A pre-stimulus recording was performed for 0.5 seconds to obtain the un-stimulated intensities baseline. The stimulatory waveform was followed by 0.5 seconds of post-stimulation recording to examine the relaxation to the resting state.

Cc1cc(F)ccc1Oc1cc(C(F)(F)F)ccc1C(=O)Nc1cc[nH]c(=O)c1 [Compound 10, 2-(4-fluoro-2-methylphenoxy)-N-(2-oxo-1,2-dihydropyridin-4-yl)-4-(trifluoromethyl)benzamide, reference compound]
% remaining ([1]; 0 min): 100%
% remaining ([1]; 15 min): 108%
% remaining ([1]; 30 min): 102%
% remaining ([1]; 60 min): 87.4%
% remaining ([2]; 0 min): 100%
% remaining ([2]; 15 min): 85.9%
% remaining ([2]; 30 min): 85.4%
% remaining ([2]; 60 min): 85.7%
% remaining ([3]; 0 min): 100%
% remaining ([3]; 15 min): 96.4%
% remaining ([3]; 30 min): 92.4%
% remaining ([3]; 60 min): 91.4%
% remaining ([4]; 0 min): 100%
% remaining ([4]; 15 min): 110%
% remaining ([4]; 30 min): 105%
% remaining ([4]; 60 min): 106%
concentration at 0.083 h ([5]; 0.083 hours): 391 ng/mL
concentration at 0.167 h ([5]; 0.167 hours): 349 ng/mL
concentration at 0.25 h ([5]; 0.25 hours): 316 ng/mL
concentration at 0.5 h ([5]; 0.5 hours): 239 ng/mL
concentration at 1 h ([5]; 1 hour): 174 ng/mL
concentration at 2 h ([5]; 2 hours): 111 ng/mL
concentration at 4 h ([5]; 4 hours): 51.6 ng/mL
concentration at 8 h ([5]; 8 hours): 14.3 ng/mL
concentration at 12 h ([5]; 12 hours): 4.27 ng/mL
AUC ([5]; noncompartmental analysis): 415 ng·h/mL
AUC(0-inf) ([5]; noncompartmental analysis): 422 ng·h/mL
C0 ([5]; noncompartmental analysis): 245 ng/mL
clearance ([5]; noncompartmental analysis): 22.1 mL/min/kg
half-life ([5]; noncompartmental analysis): 2.2 h
Vd ([5]; noncompartmental analysis, read-out: Vss): 3.4 L/kg

[2H]C([2H])([2H])c1cc(F)ccc1Oc1cc(C(F)(F)F)ccc1C(=O)Nc1ccn(COP(=O)(O)O)c(=O)c1 [Compound 13, (4-(2-(4-fluoro-2-(methyl-d3)phenoxy)-4-(trifluoromethyl)benzamido)-2-oxopyridin-1(2H)-yl)methyl dihydrogen phosphate]
half-life at 0.25 µM [6]: < 0.5 h
conversion of prodrug to parent compound [6]: fast conversion
% remaining ([6]; time 0 hr): 100%
% remaining ([6]; time 0.25 hr): 73.8%
% remaining ([6]; time 0.5 hr): 33.2%
% remaining ([6]; time 1 hr): 11.1%
% remaining ([6]; time 2 hr): 11.8%
IC50 (human NaV 1.8; 11 point dose response, top dose 3 μM, read-out: Nav1.8 IC50): 1200 nM
Nav1.8 Max % Activity (human NaV 1.8; normalised to positive control 25 μM): 99%

Cc1cc(F)ccc1Oc1cc(C(F)(F)F)ccc1C(=O)Nc1ccn(COP(=O)(O)O)c(=O)c1 [Compound 20, (4-(2-(4-fluoro-2-methylphenoxy)-4-(trifluoromethyl)benzamido)-2-oxopyridin-1(2H)-yl)methyl dihydrogen phosphate, reference compound]
half-life at 0.25 µM [6]: < 0.5 h
conversion of prodrug to parent compound [6]: fast conversion
% remaining ([6]; time 0 hr): 100%
% remaining ([6]; time 0.25 hr): 75.1%
% remaining ([6]; time 0.5 hr): 32.7%
% remaining ([6]; time 1 hr): 11.2%
% remaining ([6]; time 2 hr): 11.6%
